# Measurements from ChEMBL document CHEMBL1137833, “Synthesis and biological evaluation of stilbene-based pure estrogen antagonists” (Bioorg Med Chem Lett, 2004).
# Tests used:
# Estrogen receptor [1] = biological target: T1, Estrogen receptor (Homo sapiens, UniProt Q92731+P03372); test: Inhibition of 10e-9 M E2 stimulated transcriptional activation in ER+MCF-7/2a breast cancer cells; format: functional, cell-based; conditions: cancer cell lines
# Estrogen receptor [2] = biological target: T1, Estrogen receptor; test: Inhibition of 10e-9 M E2 stimulated MCF-7 breast cancer cell proliferation; format: functional, cell-based; conditions: cancer cell lines
# Estrogen receptor [3] = biological target: T1, Estrogen receptor; test: Inhibition of ER+ MCF-7 breast cancer cell proliferation over 200 hr; conditions: cancer cell lines
# Estrogen receptor [4] = biological target: T1, Estrogen receptor; conditions: Cancer cell lines, at 5 µM
# Description: Inhibition of ER-MDA-MB 231 breast cancer cell proliferation over 96 hr at 5 uM
# Estrogen receptor [5] = biological target: T1, Estrogen receptor; conditions: Cancer cell lines, at 10 µM
# Description: Inhibition of ER-MDA-MB 231 breast cancer cell proliferation over 96 hr at 10 uM
Compound,IC50 (Estrogen receptor [1]) [nM],IC50 (Estrogen receptor [2]) [nM],IC50 (Estrogen receptor [3]) [nM],T/C (Estrogen receptor [4]) [%],T/C (Estrogen receptor [5]) [%]
CCCCCSCCCN(C)C(=O)CCCCC/C(=C(/CC)c1ccc(O)cc1)c1ccc(O)cc1,600,1900,,,
CCCCCSCCCCCCCCCC/C(=C(/CC)c1ccc(O)cc1)c1cccc(O)c1,1200,2100,,,
CCCCCS(=O)(=O)CCCCCCCCCCn1c(-c2ccc(O)cc2)c(C)c2cc(O)ccc21,20,50,1.4,84,-2
CCCCCSCCCN(C)CCCCCC/C(=C(/CC)c1ccc(O)cc1)c1ccc(O)cc1,10,10,0.75,75,-25
CCCCCSCCCCCCCCCC/C(=C(/CC)c1ccc(O)cc1)c1ccc(O)cc1,790,1400,,,
CCCCCS(=O)(=O)CCCCCCCCCC/C(=C(/CC)c1ccc(O)cc1)c1cccc(O)c1,370,270,49,96,-7
CC/C(=C(/CCCCCCN(C)CCCSCCCC(F)(F)C(F)(F)F)c1ccc(O)cc1)c1ccc(O)cc1,10,7,0.22,-15,-15
CCCCCSCCCCCCCCCC/C(=C(/CC)c1cccc(O)c1)c1ccc(O)cc1,200,590,,,
CC/C(=C(/CCCCCC(=O)N(C)CCCSCCCC(F)(F)C(F)(F)F)c1ccc(O)cc1)c1ccc(O)cc1,310,700,,,
CCCCCS(=O)(=O)CCCCCCCCCC/C(=C(/CC)c1cccc(O)c1)c1ccc(O)cc1,50,110,6.1,90,32
C[C@]12CC[C@@H]3c4ccc(O)cc4C[C@@H](CCCCCCCCC[S+]([O-])CCCC(F)(F)C(F)(F)F)[C@H]3[C@@H]1CC[C@@H]2O (some centres not stated),,,,93,95
CCCCCS(=O)(=O)CCCCCCCCCC/C(=C(/CC)c1ccc(O)cc1)c1ccc(O)cc1,130,100,5.1,94,-4
